From US4012382A, “α-Amino and α-formyl-α-(p-acyloxyphenyl)acetamidocephalosporanic acid derivatives” (priority 1974, dated 1977)
In brackets after ≈: the same amount, converted by molar mass.

Experiments:
Str. pyogenes A9604 = assay: MIC, 2-fold broth dilution, Str. pyogenes A9604; format: cell-based; details: Streptococcus pyogenes, 10-3 dilution of overnite broth culture, 45% AAB + 5% serum + 50% NB
Procedure: (§1) *45% AAB + 5% serum + 50% NB
(§2) **Dilution of overnite broth culture
(§3) Minimal inhibitory concentrations were determined by the 2-fold broth dilution method utilizing equimolar concentrations of each compound.

E. coli A9675 = assay: MIC, 2-fold broth dilution, E. coli A9675; format: cell-based; details: Escherichia coli, Nutrient Broth, 10-4
Procedure: as §3

K. pneumoniae A15130 = assay: MIC, 2-fold broth dilution, K. pneumoniae A15130; format: cell-based; details: Klebsiella pneumoniae, Nutrient Broth, 10-4
Procedure: as §3

Ent. cloacae A9657 = assay: MIC, 2-fold broth dilution, Ent. cloacae A9657; format: cell-based; details: Enterobacter cloacae, Nutrient Broth, 10-4
Procedure: as §3

Pr. morganii A15153 = assay: MIC, 2-fold broth dilution, Pr. morganii A15153; format: cell-based; details: Morganella morganii, Nutrient Broth, 10-4
Procedure: as §3

Ent. cloacae A9659 = assay: MIC, 2-fold broth dilution, Ent. cloacae A9659; format: cell-based; details: Enterobacter cloacae, Nutrient Broth, 10-4
Procedure: as §3

E. coli Juhl A15119 = assay: MIC, 2-fold broth dilution, E. coli Juhl A15119; format: cell-based; details: Escherichia coli, JUHLA15119; Nutrient Broth; 10-4
Procedure: as §3

Sal. enteritidis A9531 = assay: MIC, 2-fold broth dilution, Sal. enteritidis A9531; format: cell-based; details: Salmonella enterica, Nutrient Broth, 10-4
Procedure: as §3

K. pneumoniae A9977 = assay: MIC, 2-fold broth dilution, K. pneumoniae A9977; format: cell-based; details: Klebsiella pneumoniae, Nutrient Broth, 10-4
Procedure: as §3

S. aureus Smith A9537 = assay: MIC, 2-fold broth dilution, S. aureus Smith A9537; format: cell-based; details: Staphylococcus aureus, SMITHA9537, Nutrient Broth, 10-4
Procedure: as §3

D. pneumoniae A9585 = assay: MIC, 2-fold broth dilution, D. pneumoniae A9585; format: cell-based; details: Streptococcus pneumoniae, 10-3 dilution of overnite broth culture, 45% AAB + 5% serum + 50% NB
Procedure: as §1, §2, §3

Ser. marcescens A20019 = assay: MIC, 2-fold broth dilution, Ser. marcescens A20019; format: cell-based; details: Serratia marcescens, Nutrient Broth, 10-4
Procedure: as §3

[1] = test system: S. aureus Meth-Res A15097; assay: MIC, 2-fold broth dilution, S. aureus Meth-Res A15097; format: cell-based; details: Staphylococcus aureus; Nutrient Broth; 10-3
Procedure: as §3

S. aureus BX1633 A9606 = assay: MIC, 2-fold broth dilution, S. aureus BX1633 A9606; format: cell-based; details: Staphylococcus aureus, BX1633A9606, Nutrient Broth
Procedure: as §3

Ent. cloacae A9656 = assay: MIC, 2-fold broth dilution, Ent. cloacae A9656; format: cell-based; details: Enterobacter cloacae, Nutrient Broth, 10-4
Procedure: as §3

Ps. aeruginosa A9843A = assay: MIC, 2-fold broth dilution, Ps. aeruginosa A9843A; format: cell-based; details: Pseudomonas aeruginosa
Procedure: as §3

Pr. mirabilis A9900 = assay: MIC, 2-fold broth dilution, Pr. mirabilis A9900; format: cell-based; details: Proteus mirabilis, Nutrient Broth, 10-4
Procedure: as §3

[2] = Stability in normal saline (bioautographed paper chromatography); format: physicochemical; details: 0.5 mg./ml. in normal saline, 37° C., sampled 0-24 hours
Procedure: (§4) Solutions of 0.5 mg./ml. of 7-D-(-)α-amino-α-p(-acetoxyphenylacetamido)desacetoxycephalosporanic acid (p-acetoxycephalexin) in normal saline and in human serum were prepared. Standard solutions of 0.5 mg./ml. of 7-D-(-)α-amino-α-p(-hydroxyphenylacetamido)desacetoxycephalosporanic acid (p-hydroxycephalexin) were also prepared in both normal saline and human serum.
(§5) All the above solutions were incubated at 37° C. with shaking and sampled for chromatography at time intervals of 0, 2, 4, 8 and 24 hours. The solutions, approximately 5 microliters per strip, were spotted on Whatman No. 1 half-inch strips which were dried and developed in a solvent system containing 80 parts butylacetate; 15 parts n-butanol; 40 parts acetic acid; and 24 parts water. The strips were then bioautographed on plates seeded with bacillus subtilis at a pH of 6.0.

[3] = Hydrolysis in human serum (bioautographed paper chromatography); format: in vitro ADME
Procedure: as §4, §5

Row | SMILES | MIC (Str. pyogenes A9604) [µg/mL] | MIC (E. coli A9675) [µg/mL] | MIC (K. pneumoniae A15130) [µg/mL] | MIC (Ent. cloacae A9657) [µg/mL] | MIC (Pr. morganii A15153) [µg/mL] | MIC (Ent. cloacae A9659) [µg/mL] | MIC (E. coli Juhl A15119) [µg/mL] | MIC (Sal. enteritidis A9531) [µg/mL] | MIC (K. pneumoniae A9977) [µg/mL] | MIC (S. aureus Smith A9537) [µg/mL] | MIC (S. aureus Smith A9537; + 50% serum) [µg/mL] | MIC (D. pneumoniae A9585) [µg/mL] | MIC (Ser. marcescens A20019) [µg/mL] | MIC [1] [µg/mL] | MIC (S. aureus BX1633 A9606; 10-2) [µg/mL] | MIC (S. aureus BX1633 A9606; 10-3) [µg/mL] | MIC (Ent. cloacae A9656) [µg/mL] | MIC (Ps. aeruginosa A9843A) [µg/mL] | MIC (Pr. mirabilis A9900) [µg/mL] | other results
1 | CC1=C(C(=O)O)N2C(=O)[C@@H](NC(=O)[C@H](N)c3ccc(O)cc3)[C@H]2SC1 [BL-S 578-4, 7-D-(-)α-amino-α-(p-hydroxyphenylacetamido)desacetoxycephalosporanic acid, reference compound] | 0.08 | 32 (≈ 88.1 µM) | 32 (≈ 88.1 µM) | 16 (≈ 44 µM) | > 125 | > 125 | 16 (≈ 44 µM) | 8 (≈ 22 µM) | 16 (≈ 44 µM) | 1.3 (≈ 3.58 µM) | 1.3 | 0.6 | > 125 | 16 (≈ 44 µM) | 2 (≈ 5.5 µM) | 2 (≈ 5.5 µM) | > 125 | > 125 | 8 (≈ 22 µM) | –
2 | CC(=O)Oc1ccc([C@@H](N)C(=O)N[C@@H]2C(=O)N3C(C(=O)O)=C(CSc4c[nH]nn4)CS[C@H]23)cc1 [RN 1396] | 0.04 | 8 (≈ 15.9 µM) | 2 (≈ 3.96 µM) | 1 (≈ 1.98 µM) | 63 (≈ 125 µM) | 32 (≈ 63.4 µM) | 2 (≈ 3.96 µM) | 0.3 (≈ 0.595 µM) | 1 (≈ 1.98 µM) | 0.16 (≈ 0.317 µM) | 1 | 0.04 | 125 (≈ 248 µM) | 8 (≈ 15.9 µM) | 4 (≈ 7.93 µM) | 0.6 (≈ 1.19 µM) | 125 (≈ 248 µM) | 125 (≈ 248 µM) | 0.5 (≈ 0.991 µM) | –
3 | CC(=O)Oc1ccc([C@@H](N)C(=O)N[C@@H]2C(=O)N3C(C(=O)O)=C(C)CS[C@H]23)cc1 [RN 1394, 7-D(-)2-amino-2-(4-acetoxyphenylacetamido)desacetoxycephalosporanic acid] | 0.08 | 63 (≈ 155 µM) | 32 (≈ 78.9 µM) | 8 (≈ 19.7 µM) | > 125 | > 125 | 32 (≈ 78.9 µM) | 8 (≈ 19.7 µM) | 16 (≈ 39.5 µM) | 0.6 (≈ 1.48 µM) | 0.6 | 0.08 | > 125 | 32 (≈ 78.9 µM) | 2 (≈ 4.93 µM) | 1 (≈ 2.47 µM) | > 125 | > 125 | 8 (≈ 19.7 µM) | stability in normal saline ([2]; listed as 7-D-(-)α-amino-α-(p-acetoxyphenyl-acetamido)desacetoxycephalosporanic acid): stable in normal saline; stability in normal saline ([2]; listed as p-acetoxycephalexin): appears stable; hydrolysis to the p-hydroxy form in human serum ([3]; 0.5 mg./ml. in human serum, 37° C., sampled 0-24 hours): quickly hydrolyzed to the p-hydroxy form; enzymatic hydrolysis to the p-hydroxy compound ([3]; enzymatic): hydrolyzed enzymatically
4 | N[C@@H](C(=O)N[C@@H]1C(=O)N2C(C(=O)O)=C(CSc3c[nH]nn3)CS[C@H]12)c1ccc(O)cc1 [Bl-S640, reference compound] | 0.04 | 4 (≈ 8.65 µM) | 1 (≈ 2.16 µM) | 0.5 (≈ 1.08 µM) | 63 (≈ 136 µM) | 32 (≈ 69.2 µM) | 0.5 (≈ 1.08 µM) | 0.6 (≈ 1.3 µM) | 0.5 (≈ 1.08 µM) | 0.3 (≈ 0.649 µM) | 1 | 0.04 | 125 (≈ 270 µM) | 4 (≈ 8.65 µM) | 1 (≈ 2.16 µM) | 0.6 (≈ 1.3 µM) | 125 (≈ 270 µM) | 125 (≈ 270 µM) | 0.5 (≈ 1.08 µM) | –
